pEC50, pIC50: −log10 of the molar value. ≈ marks a conversion by molar mass, not a printed value.
Legend:
[1] = biological target: T1, Xanthine dehydrogenase/oxidase (Homo sapiens, UniProt P47989); assay: Inhibition of xanthine oxidase (unknown origin) using xanthine as substrate preincubated for 30 mins followed by substrate addition by spectrophotometry
[2] = tested on: Influenza A virus; assay: Antiviral activity against Influenza A virus H1N1 FM/1/47 infected in BALB/c mouse assessed as decrease in recruitment of M1-polarized CD11b+ and F4/80+ macrophages in BALF at 80 mg/kg/day, po qd for 7 days by flow cytometry relative to control; type: functional; set-up: scale not given: the % may be the effect or the level left; settings: time 7 day
[3] = biological target: Angiotensin-converting enzyme 2 (Homo sapiens) (UniProt Q9BYF1); assay: Synergistic inhibition of ACE2 in human SAEC cells at 25 uM incubated for 6 days in presence of ascorbic acid by ELISA relative to control; type: cell-based; settings: time 6.0 day
[4] = Inhibition of SARS-CoV-2 nsp15 endonuclease activity using 5'-FAM-dArUdAdAdA-TAMRA-3' as substrate measure for 1 hr by fluorescence based assay; set-up: species or system Severe acute respiratory syndrome coronavirus 2
[5] = biological target: T2, Renin (Homo sapiens, UniProt P00797); assay: Inhibition of recombinant human renin using Arg-Glu(EDANS)-lle-His-Pro-Phe-His-Leu-Val-lle-His-Thr-Lys(dabcyl)-Arg as substrate incubated for 5 to 10 mins by fluorescence based assay
T2 sequence (P00797 whole entry): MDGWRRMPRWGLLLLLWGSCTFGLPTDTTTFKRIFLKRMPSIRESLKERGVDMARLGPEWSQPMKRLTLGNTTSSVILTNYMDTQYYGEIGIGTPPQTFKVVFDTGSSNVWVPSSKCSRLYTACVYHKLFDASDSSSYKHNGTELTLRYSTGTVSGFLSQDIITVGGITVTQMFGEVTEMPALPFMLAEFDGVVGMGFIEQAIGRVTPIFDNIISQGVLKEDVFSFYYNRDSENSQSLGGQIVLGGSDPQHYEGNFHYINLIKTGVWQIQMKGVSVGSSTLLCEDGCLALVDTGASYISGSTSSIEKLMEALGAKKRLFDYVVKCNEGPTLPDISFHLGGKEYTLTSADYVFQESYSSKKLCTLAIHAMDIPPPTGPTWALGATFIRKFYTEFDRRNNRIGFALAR

[6] = biological target: Angiotensin-converting enzyme (Homo sapiens, UniProt P12821); assay: Inhibition of ACE (unknown origin) using Hippuryo-histidyl-leucine as substrate incubated for 40 mins by absorbance based assay
[7] = Antioxidant activity assessed as DPPH radical scavenging activity at 50 uM measured after 2 mins by ESR spectroscopy relative to control; type: functional
[8] = tested on: SARS-CoV-2; assay: Antiviral activity against SARS-CoV-2 NCCP 43326 infected in African green monkey Vero cells assessed as reduction in viral infection preincubated with cell culture for 30 mins and further infected with virus measured after 72 hrs by plaque reduction neutralization test method; type: functional, organism-based; settings: Severe acute respiratory syndrome coronavirus 2, NCCP 43326, Vero
[9] = Cmax in Sprague-Dawley rat at 224 umol/kg, po measured for 2160 mins; type: ADME, organism-based; settings: in vivo, 36 h, dose 224 µmol/kg
[10] = tested on: SARS-CoV-2; assay: Antiviral activity against SARS-CoV-2 infected in African green monkey Vero cells assessed as reduction in viral replication; type: functional, organism-based; settings: Severe acute respiratory syndrome coronavirus 2, Vero
[11] = biological target: T1, Xanthine dehydrogenase/oxidase; assay: Inhibition of xanthine oxidase (unknown origin)
[12] = Solubility of compound in water; type: physicochemical
[13] = Cytotoxicity against African green monkey Vero E6 cells assessed as reduction in cell viability incubated for 3 days by MTT assay; type: toxicity, cell-based, Vero C1008; settings: chlorocebus sabaeus, time 3 day
[14] = Cytotoxicity against African green monkey Vero cells incubated for 4 days by MTS assay; type: toxicity, cell-based; settings: chlorocebus sabaeus, time 4 day
[15] = Oral bioavailability in rat; type: ADME, organism-based; settings: in vivo
[16] = Cytotoxicity against African green monkey Vero cells; type: toxicity, cell-based; settings: chlorocebus sabaeus
[17] = Apparent permeability in human Caco-2 cells measured for 30 to 180 mins by HPLC analysis; type: ADME, cell-based; settings: time 30-180 min
[18] = Cytotoxicity against human Calu-3 cells incubated for 4 days by MTS assay; type: toxicity, cell-based; settings: time 4 day
[19] = Antioxidant activity assessed as DPPH radical scavenging activity at 25 uM measured after 2 mins by ESR spectroscopy relative to control; type: functional
[20] = AUC (0 to 360 min) in Sprague-Dawley rat at 224 umol/kg, po; type: ADME; settings: in vivo, 6 h, dose 224 µmol/kg
[21] = biological target: Angiotensin-converting enzyme 2 (Homo sapiens) (UniProt Q9BYF1); assay: Inhibition of ACE2 in human SAEC cells at 25 uM incubated for 6 days by ELISA relative to control; type: cell-based; settings: time 6.0 day
[22] = biological target: Xanthine dehydrogenase/oxidase (Bos taurus, UniProt P80457); assay: Inhibition of bovine milk xanthine oxidase using xanthine as substrate preincubated for 30 mins followed by substrate addition measured for 200 secs by spectrophotometry
[23] = tested on: SARS-CoV-2; assay: Antiviral activity against SARS-CoV-2 TY/WK-521 infected in African green monkey Vero E6 cells assessed as reduction in viral replication preincubated with cell culture for 1 hr and further infected with virus for 2 hrs followed by compound washout and subsequent addition of medium containing compounds measured for 48 hrs post-infection by qRT-PCR analysis; type: functional, organism-based; settings: Severe acute respiratory syndrome coronavirus 2, TY/WK-521, Vero C1008
[24] = tested on: Influenza A virus; assay: Antiviral activity against Influenza A virus H1N1 FM/1/47 infected in BALB/c mouse assessed as macrophage polarization in BALF at 80 mg/kg/day, po qd for 7 days by flow cytometry (reference value: 95 %); type: functional; settings: time 7 day
[25] = tested on: SARS-CoV-2; assay: Inhibition of SARS-CoV-2 pseudovirus entry in human Huh-7 cells at 30 uM preincubated with cell culture for 1 hr followed by pseudovirus infection measured after 48 hrs by luciferase reporter gene assay relative to control; type: functional; settings: Severe acute respiratory syndrome coronavirus 2, Huh-7, time 49 hrs
[26] = Antioxidant activity assessed as DPPH radical scavenging activity at 200 uM measured after 2 mins by ESR spectroscopy relative to control; type: functional
[27] = Oral bioavailability in monkey; type: ADME, organism-based, Macaca mulatta; settings: rhesus monkey, in vivo
[28] = tested on: Human coronavirus OC43; assay: (§1) Antiviral activity against HCoV-OC43 infected in human HRT-18 cells assessed as inhibition in viral replication at 12.5 ug/ml preincubated with cell culture for 1 hr and further infected with virus for 1 hr followed by removal of virus particles and subsequent replacement of medium containing compound measured for 96 hrs post-infection by RT-PCR analysis relative to control; type: functional, HRT-18 cell line; settings: Betacoronavirus 1, HRT-18, time 97 hrs
[29] = tested on: Severe acute respiratory syndrome coronavirus 2; assay: Binding affinity to SARS-CoV-2 nsp5 assessed as change in melting temperature preincubated for 20 mins followed by heating by thermal shift assay
[30] = Inhibition of C-terminal GST-tagged full-length recombinant SARS-CoV 3CLpro expressed in Escherichia coli BL21(DE3) using MCA-AVLQSGFR-Lys(Dnp)-Lys-NH2 as substrate preincubated for 10 mins followed by substrate addition measured for 3.5 mins by FRET assay; set-up: species or system Severe acute respiratory syndrome-related coronavirus
[31] = AUC (0 to 360 min) in Sprague-Dawley rat at 37 umol/kg, iv; type: ADME; settings: in vivo, 6 h, dose 37 µmol/kg
[32] = Cytotoxicity against African green monkey Vero cells by CCK8 assay; type: toxicity, cell-based; settings: chlorocebus sabaeus
[33] = Drug metabolism in Sprague-Dawley rat assessed as circulating drug conjugates by measuring AUC (0 to 360 min) at 37 umol/kg, iv; type: ADME; settings: in vivo, 6 h, dose 37 µmol/kg
[34] = Aqueous solubility of compound; type: physicochemical; settings: buffer
[35] = tested on: Bovine coronavirus; assay: as §1, with “B-CoV” for “HCoV-OC43”, “25” for “12.5”; type: functional, HRT-18 cell line; settings: Betacoronavirus 1, HRT-18, time 98 hrs
[36] = tested on: Severe acute respiratory syndrome coronavirus 2; assay: Binding affinity to SARS-CoV-2 nsp12 assessed as change in melting temperature preincubated for 20 mins followed by heating by thermal shift assay
[37] = biological target: Replicase polyprotein 1ab (Severe acute respiratory syndrome coronavirus 2) (UniProt P0DTD1); assay: Binding affinity to SARS-CoV-2 nsp14 assessed as change in melting temperature preincubated for 20 mins followed by heating by thermal shift assay
[38] = biological target: Replicase polyprotein 1ab (Severe acute respiratory syndrome coronavirus 2) (UniProt P0DTD1); assay: Inhibition of SARS-CoV-2 3CLpro at 100 ug/ml preincubated for 30 mins followed by substrate addition measured after 4 hrs by fluorescence assay relative to control; settings: dose 100.0 µg/ml, time 4.5 hrs
[39] = biological target: Replicase polyprotein 1ab (Severe acute respiratory syndrome coronavirus 2) (UniProt P0DTD1); assay: Inhibition of full-length SARS-CoV-2 PLpro expressed in Escherichia coli BL21(DE3) using RLRGG-AMC as substrate at 50 uM preincubated for 10 mins followed by substrate addition measured for 5 mins by FRET assay relative to control; settings: time 15.0 min
[40] = biological target: Replicase polyprotein 1ab (Severe acute respiratory syndrome coronavirus 2, UniProt P0DTD1); assay: Inhibition of SARS-CoV-2 PLpro using Ubiquitin-AMC as substrate by continuous kinetic assay

T1 sequence (P47989 whole entry): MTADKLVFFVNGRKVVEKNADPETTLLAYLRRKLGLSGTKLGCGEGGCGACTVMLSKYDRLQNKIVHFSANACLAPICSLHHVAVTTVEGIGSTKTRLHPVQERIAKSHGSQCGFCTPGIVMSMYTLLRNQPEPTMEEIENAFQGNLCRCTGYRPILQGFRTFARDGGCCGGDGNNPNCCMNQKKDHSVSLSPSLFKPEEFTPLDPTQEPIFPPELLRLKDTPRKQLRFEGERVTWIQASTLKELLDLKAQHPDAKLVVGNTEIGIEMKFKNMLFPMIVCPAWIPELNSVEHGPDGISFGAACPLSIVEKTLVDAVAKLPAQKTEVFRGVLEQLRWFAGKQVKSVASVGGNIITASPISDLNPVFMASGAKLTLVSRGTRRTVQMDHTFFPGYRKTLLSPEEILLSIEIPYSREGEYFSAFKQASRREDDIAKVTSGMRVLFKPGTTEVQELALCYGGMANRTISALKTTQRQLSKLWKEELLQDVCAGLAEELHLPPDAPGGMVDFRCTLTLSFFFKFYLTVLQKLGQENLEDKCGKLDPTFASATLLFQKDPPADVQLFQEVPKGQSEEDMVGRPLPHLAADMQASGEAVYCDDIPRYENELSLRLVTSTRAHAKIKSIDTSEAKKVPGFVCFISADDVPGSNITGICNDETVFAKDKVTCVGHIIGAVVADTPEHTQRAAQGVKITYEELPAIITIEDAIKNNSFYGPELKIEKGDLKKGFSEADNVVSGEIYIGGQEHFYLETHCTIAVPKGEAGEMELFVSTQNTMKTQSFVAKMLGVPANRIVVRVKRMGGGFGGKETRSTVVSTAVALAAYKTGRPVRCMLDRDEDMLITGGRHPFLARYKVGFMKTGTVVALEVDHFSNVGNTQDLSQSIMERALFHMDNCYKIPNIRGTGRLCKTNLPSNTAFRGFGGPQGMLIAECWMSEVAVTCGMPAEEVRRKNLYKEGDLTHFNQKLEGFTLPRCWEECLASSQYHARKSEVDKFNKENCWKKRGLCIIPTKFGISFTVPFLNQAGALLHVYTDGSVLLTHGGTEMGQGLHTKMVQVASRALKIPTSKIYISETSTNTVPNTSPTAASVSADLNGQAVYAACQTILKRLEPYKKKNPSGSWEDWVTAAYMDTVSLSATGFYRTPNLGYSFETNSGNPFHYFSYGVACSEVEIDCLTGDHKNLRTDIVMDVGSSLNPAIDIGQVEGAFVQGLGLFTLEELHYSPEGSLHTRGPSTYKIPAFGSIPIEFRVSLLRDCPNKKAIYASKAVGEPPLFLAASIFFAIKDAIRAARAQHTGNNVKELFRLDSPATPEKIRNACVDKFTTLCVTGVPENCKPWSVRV
Sequence of Angiotensin-converting enzyme 2 (Homo sapiens) (Q9BYF1 18-805 limits assumed): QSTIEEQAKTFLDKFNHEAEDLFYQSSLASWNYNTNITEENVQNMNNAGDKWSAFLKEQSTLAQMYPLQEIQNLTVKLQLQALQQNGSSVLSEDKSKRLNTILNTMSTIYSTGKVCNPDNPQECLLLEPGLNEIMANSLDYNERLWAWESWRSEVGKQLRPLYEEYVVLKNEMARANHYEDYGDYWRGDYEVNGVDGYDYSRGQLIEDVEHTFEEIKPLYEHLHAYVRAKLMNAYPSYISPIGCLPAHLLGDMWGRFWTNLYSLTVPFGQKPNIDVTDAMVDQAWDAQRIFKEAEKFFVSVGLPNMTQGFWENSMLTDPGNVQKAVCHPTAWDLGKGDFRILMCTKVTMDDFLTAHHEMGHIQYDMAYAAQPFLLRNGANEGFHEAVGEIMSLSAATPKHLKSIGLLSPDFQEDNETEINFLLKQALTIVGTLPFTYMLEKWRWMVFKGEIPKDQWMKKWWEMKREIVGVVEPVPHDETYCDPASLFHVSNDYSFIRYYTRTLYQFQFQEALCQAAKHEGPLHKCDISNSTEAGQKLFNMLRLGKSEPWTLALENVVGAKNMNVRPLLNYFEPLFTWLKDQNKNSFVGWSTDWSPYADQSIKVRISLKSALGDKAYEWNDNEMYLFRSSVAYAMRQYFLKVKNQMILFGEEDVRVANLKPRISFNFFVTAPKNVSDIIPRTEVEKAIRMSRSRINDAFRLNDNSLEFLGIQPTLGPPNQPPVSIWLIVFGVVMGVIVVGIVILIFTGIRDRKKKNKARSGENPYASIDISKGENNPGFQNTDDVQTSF
Sequence of Xanthine dehydrogenase/oxidase (Bos taurus, UniProt P80457) (P80457 whole entry): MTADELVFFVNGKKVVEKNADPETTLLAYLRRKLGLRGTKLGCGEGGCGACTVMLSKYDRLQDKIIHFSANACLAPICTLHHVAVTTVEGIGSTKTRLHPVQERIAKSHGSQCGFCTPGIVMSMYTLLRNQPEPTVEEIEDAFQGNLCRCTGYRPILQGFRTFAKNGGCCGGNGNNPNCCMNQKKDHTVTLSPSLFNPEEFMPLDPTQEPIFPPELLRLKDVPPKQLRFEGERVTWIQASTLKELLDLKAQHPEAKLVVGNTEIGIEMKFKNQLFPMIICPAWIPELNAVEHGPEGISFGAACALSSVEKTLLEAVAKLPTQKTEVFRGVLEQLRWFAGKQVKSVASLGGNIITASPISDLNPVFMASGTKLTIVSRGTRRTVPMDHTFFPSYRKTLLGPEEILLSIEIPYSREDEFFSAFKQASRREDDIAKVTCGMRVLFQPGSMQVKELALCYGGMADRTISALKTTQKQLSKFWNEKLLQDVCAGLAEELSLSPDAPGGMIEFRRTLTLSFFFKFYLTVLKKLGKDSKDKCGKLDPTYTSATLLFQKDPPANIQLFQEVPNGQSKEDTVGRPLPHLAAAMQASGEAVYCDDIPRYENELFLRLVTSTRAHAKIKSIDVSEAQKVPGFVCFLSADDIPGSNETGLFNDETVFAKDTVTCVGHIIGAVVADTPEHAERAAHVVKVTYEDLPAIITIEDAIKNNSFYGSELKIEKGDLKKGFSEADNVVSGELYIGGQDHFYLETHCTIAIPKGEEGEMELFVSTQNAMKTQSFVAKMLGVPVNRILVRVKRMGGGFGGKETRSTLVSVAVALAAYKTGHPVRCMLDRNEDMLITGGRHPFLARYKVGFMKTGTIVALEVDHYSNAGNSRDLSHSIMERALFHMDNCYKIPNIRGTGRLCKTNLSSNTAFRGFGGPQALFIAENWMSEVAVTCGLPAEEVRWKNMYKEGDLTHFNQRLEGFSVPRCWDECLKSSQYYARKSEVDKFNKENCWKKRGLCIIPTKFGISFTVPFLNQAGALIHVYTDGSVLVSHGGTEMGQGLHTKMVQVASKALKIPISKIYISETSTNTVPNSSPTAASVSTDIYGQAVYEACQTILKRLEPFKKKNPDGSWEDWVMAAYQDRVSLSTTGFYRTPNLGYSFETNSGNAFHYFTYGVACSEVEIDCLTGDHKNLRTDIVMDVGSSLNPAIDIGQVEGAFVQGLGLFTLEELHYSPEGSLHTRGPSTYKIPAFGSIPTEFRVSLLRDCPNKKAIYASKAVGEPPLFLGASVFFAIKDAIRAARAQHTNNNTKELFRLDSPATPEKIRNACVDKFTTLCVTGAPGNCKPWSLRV
Sequence of Angiotensin-converting enzyme (P12821 whole entry): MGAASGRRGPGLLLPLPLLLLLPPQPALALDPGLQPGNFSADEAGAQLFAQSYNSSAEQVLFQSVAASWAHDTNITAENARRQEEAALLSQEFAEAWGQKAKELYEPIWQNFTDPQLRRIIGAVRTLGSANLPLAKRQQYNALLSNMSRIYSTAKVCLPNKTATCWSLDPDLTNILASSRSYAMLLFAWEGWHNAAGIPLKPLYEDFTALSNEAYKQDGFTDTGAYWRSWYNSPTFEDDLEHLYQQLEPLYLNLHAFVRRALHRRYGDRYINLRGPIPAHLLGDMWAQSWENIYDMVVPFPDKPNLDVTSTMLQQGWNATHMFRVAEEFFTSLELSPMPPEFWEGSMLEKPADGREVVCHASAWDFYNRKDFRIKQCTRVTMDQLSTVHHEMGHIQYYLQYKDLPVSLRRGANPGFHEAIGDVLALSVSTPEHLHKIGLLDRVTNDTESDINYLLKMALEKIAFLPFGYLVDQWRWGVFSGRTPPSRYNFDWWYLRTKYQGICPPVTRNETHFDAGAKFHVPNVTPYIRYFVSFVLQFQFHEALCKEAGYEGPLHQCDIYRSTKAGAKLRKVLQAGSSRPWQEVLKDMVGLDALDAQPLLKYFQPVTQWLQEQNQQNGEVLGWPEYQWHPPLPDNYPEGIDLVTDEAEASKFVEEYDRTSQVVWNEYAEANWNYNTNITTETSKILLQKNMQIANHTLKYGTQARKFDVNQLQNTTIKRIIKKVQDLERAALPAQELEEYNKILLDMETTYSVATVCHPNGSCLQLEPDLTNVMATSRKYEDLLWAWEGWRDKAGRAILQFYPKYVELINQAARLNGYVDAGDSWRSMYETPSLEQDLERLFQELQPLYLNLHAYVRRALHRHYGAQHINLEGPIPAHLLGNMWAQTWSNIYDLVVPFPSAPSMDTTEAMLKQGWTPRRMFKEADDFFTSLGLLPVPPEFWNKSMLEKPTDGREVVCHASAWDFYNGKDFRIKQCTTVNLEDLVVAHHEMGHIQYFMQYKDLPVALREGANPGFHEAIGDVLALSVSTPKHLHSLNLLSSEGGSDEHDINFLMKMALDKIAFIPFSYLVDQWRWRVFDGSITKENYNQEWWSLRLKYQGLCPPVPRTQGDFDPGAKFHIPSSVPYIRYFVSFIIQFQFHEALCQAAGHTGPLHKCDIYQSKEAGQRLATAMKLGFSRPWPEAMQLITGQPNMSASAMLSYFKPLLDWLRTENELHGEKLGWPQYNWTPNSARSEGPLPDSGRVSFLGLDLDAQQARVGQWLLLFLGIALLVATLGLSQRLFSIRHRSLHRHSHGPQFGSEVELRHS

In the case of `O=C(O)[C@H]1O[C@@H](Oc2cc3oc(-c4ccccc4)cc(=O)c3c(O)c2O)[C@H](O)[C@@H](O)[C@@H]1O` [BAICALIN], the pIC50 [1] was 4.26, the Activity [2] was about 90% and the inhibition [3] was 82%. It also gave a pIC50 [4] of 5.10, a pIC50 [5] of 3.92 and a pIC50 [6] of 2.65. For the same compound, the Activity [7] was 17%, the pEC50 [8] was 4.08 and the Cmax [9] was 2.9 nM/ml. The pEC50 [10] was 4.99, the pIC50 [11] was 3.80 and the solubility [12] was 67 µg/mL (≈ 150 µM). It also gave a CC50 at 72 h [13] of over 1000 µM, a CC50 at 96 h [14] of over 100 µM and an F [15] of 2.2%. It also gave a CC50 [16] of over 200 µM, a Papp [17] of 0.037 ×10⁻⁶ cm/s and a CC50 at 96 h [18] of over 100 µM. The Activity [19] was 42%, the AUC [20] was 1943.7 nM.min/ml and the inhibition [21] was 75%. It also gave a pIC50 [22] of 3.91, a pEC50 [23] of 5.06 and an Activity [24] of 97%.

For `O=c1cc(-c2ccccc2)oc2cc(O)c(O)c(O)c12` [BAICALEIN], the inhibition at 30 µM [25] was 14.6%, the Activity [26] was over 50% and the bioavailability [27] was 13.1%. The inhibition at 12.5 µg/mL [28] was 100%, the Activity [7] was 55% and the Cmax [9] was 13.6 nM/ml. It also gave a ΔTm [29] of 0.9 °C, a pIC50 [11] of 5.51 and a pIC50 [30] of 5.93. For the same compound, the AUC [31] was 297.6 nM.min/ml, the CC50 at 96 h [14] was 8.6 µM and the CC50 [16] was over 200 µM. It also gave a CC50 [32] of over 500 µM, an AUC [33] of 927.2 nM.min/ml and a solubility [34] of 16.8 µg/mL (≈ 62.2 µM). For the same compound, the CC50 at 96 h [18] was 9.1 µM, the inhibition at 25 µg/mL [35] was 89.8% and the ΔTm [36] was 3.9 °C. The ΔTm [37] was 1.5 °C, the Activity [19] was 69% and the AUC [20] was 2980.5 nM.min/ml. For the same compound, the pIC50 [22] was 5.12, the inhibition [38] was 94.7% and the inhibition [39] was under 50%.

`CC(=O)Nc1ccc(C)c(C(=O)N[C@H](C)c2cccc3ccccc23)c1` gave a pIC50 [40] of 5.76.

From ChEMBL document CHEMBL5532636 (Eur J Med Chem, 2023)
